From PubChem BioAssay (NCI)
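Compound exposure: 48 hours, 5 concentrations, 96-well plates. TGI marks complete inhibition of growth.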

Key:
Assay in all cases: DTP human tumour cell line panel, 48 h
[1] = system: HCT-116 colon
[2] = system: HCT-15 colon
[3] = system: HT29 colon
[4] = system: DLD-1 colon
[5] = system: SR leukemia
[6] = system: KM12 colon
[7] = system: SNB-75 CNS
[8] = system: SK-OV-3 ovarian
[9] = system: MOLT-4 leukemia
[10] = system: A498 renal
[11] = system: MALME-3M melanoma
[12] = system: SK-MEL-28 melanoma
[13] = system: KM20L2 colon
[14] = system: NCI-H226 lung
[15] = system: UACC-257 melanoma
[16] = system: M14 melanoma
[17] = system: ACHN renal
[18] = system: M19-MEL melanoma
[19] = system: RPMI-8226 leukemia
[20] = system: SK-MEL-2 melanoma
[21] = system: SK-MEL-5 melanoma
[22] = system: HL-60(TB) leukemia
[23] = system: SNB-19 CNS
[24] = system: OVCAR-3 ovarian
[25] = system: UACC-62 melanoma
[26] = system: SF-539 CNS
[27] = system: HOP-62 NSCLC
[28] = system: OVCAR-4 ovarian
[29] = system: OVCAR-5 ovarian
[30] = system: SF-295 CNS
[31] = system: NCI-H23 lung
[32] = system: COLO 205 colon
[33] = system: U251 CNS
[34] = system: SNB-78 CNS
[35] = system: A549 NSCLC
[36] = system: 786-0 renal
[37] = system: TK-10 renal
[38] = system: EKVX NSCLC
[39] = system: HCC-2998 colon
[40] = system: OVCAR-8 ovarian
[41] = system: NCI-H460 lung
[42] = system: CCRF-CEM leukemia
[43] = system: NCI-H522 lung
[44] = system: K-562 leukemia
[45] = system: LOX IMVI melanoma
[46] = system: DMS 273 small cell lung
[47] = system: SN12C renal
[48] = system: SF-268 CNS
[49] = system: DMS 114 small cell lung
[50] = system: CAKI-1 renal
[51] = system: HOP-18 NSCLC
[52] = system: UO-31 renal
[53] = system: RXF 393 renal
[54] = system: XF 498 CNS
[55] = system: LXFL 529 NSCLC
[56] = system: IGROV1 ovarian
[57] = system: HOP-92 NSCLC
[58] = system: SW-620 colon

CC#CC(OCC)(OCC)OCC
TGI [1]: > 100 µM
TGI [2]: > 100 µM
TGI [3]: > 100 µM
TGI [4]: > 100 µM
TGI [5]: > 100 µM
TGI [6]: > 100 µM
TGI [7]: > 100 µM
TGI [8]: > 100 µM
TGI [9]: > 100 µM
TGI [10]: > 100 µM
TGI [11]: > 100 µM
TGI [12]: > 100 µM
TGI [13]: > 100 µM
TGI [14]: > 100 µM
TGI [15]: > 100 µM
TGI [16]: > 100 µM
TGI [17]: > 100 µM
TGI [18]: > 100 µM
TGI [19]: > 100 µM
TGI [20]: > 100 µM
TGI [21]: > 100 µM
TGI [22]: > 100 µM
TGI [23]: > 100 µM
TGI [24]: > 100 µM
TGI [25]: > 100 µM
TGI [26]: > 100 µM
TGI [27]: > 100 µM
TGI [28]: > 100 µM
TGI [29]: > 100 µM
TGI [30]: > 100 µM
TGI [31]: > 100 µM
TGI [32]: > 100 µM
TGI [33]: > 100 µM
TGI [34]: > 100 µM
TGI [35]: > 100 µM
TGI [36]: > 100 µM
TGI [37]: > 100 µM
TGI [38]: > 100 µM
TGI [39]: > 100 µM
TGI [40]: > 100 µM
TGI [41]: > 100 µM
TGI [42]: > 100 µM
TGI [43]: > 100 µM
TGI [44]: > 100 µM
TGI [45]: 39.9 µM
TGI [46]: 49.1 µM
TGI [47]: > 100 µM
TGI [48]: > 100 µM
TGI [49]: 74.3 µM
TGI [50]: > 100 µM
TGI [51]: > 100 µM
TGI [52]: > 100 µM
TGI [53]: > 100 µM
TGI [54]: > 100 µM
TGI [55]: > 100 µM
TGI [56]: > 100 µM
TGI [57]: > 100 µM

Cn1c(=O)c2c3ccccc3c(C(=O)c3ccccc3)n2c2ccccc21
TGI [1]: > 100 µM
TGI [2]: > 100 µM
TGI [3]: > 100 µM
TGI [4]: > 100 µM
TGI [5]: > 100 µM
TGI [6]: > 100 µM
TGI [7]: 15 µM
TGI [8]: > 100 µM
TGI [9]: > 100 µM
TGI [10]: > 100 µM
TGI [11]: > 100 µM
TGI [12]: > 100 µM
TGI [13]: > 100 µM
TGI [14]: > 100 µM
TGI [15]: > 100 µM
TGI [16]: > 100 µM
TGI [17]: > 100 µM
TGI [18]: > 100 µM
TGI [19]: > 100 µM
TGI [20]: > 100 µM
TGI [21]: > 100 µM
TGI [22]: > 100 µM
TGI [23]: > 100 µM
TGI [24]: > 100 µM
TGI [25]: > 30.1 µM
TGI [26]: > 100 µM
TGI [27]: > 100 µM
TGI [28]: > 100 µM
TGI [29]: > 100 µM
TGI [30]: > 100 µM
TGI [31]: > 100 µM
TGI [32]: > 100 µM
TGI [33]: > 100 µM
TGI [34]: > 100 µM
TGI [35]: > 100 µM
TGI [36]: > 100 µM
TGI [37]: > 96.6 µM
TGI [38]: > 100 µM
TGI [39]: > 100 µM
TGI [40]: > 100 µM
TGI [41]: > 100 µM
TGI [42]: > 31.6 µM
TGI [43]: > 100 µM
TGI [44]: > 100 µM
TGI [45]: > 100 µM
TGI [46]: > 100 µM
TGI [47]: > 100 µM
TGI [48]: > 100 µM
TGI [58]: > 100 µM
TGI [49]: > 100 µM
TGI [50]: > 100 µM
TGI [51]: > 100 µM
TGI [52]: > 100 µM
TGI [53]: > 100 µM
TGI [54]: > 100 µM
TGI [55]: > 100 µM
TGI [56]: > 100 µM
TGI [57]: > 84.2 µM

CC(=O)N(C)c1ccc2ncccc2c1[N+](=O)[O-]
TGI [1]: > 100 µM
TGI [2]: > 100 µM
TGI [3]: > 100 µM
TGI [4]: > 100 µM
TGI [5]: > 100 µM
TGI [6]: > 100 µM
TGI [7]: > 100 µM
TGI [9]: > 100 µM
TGI [10]: > 100 µM
TGI [11]: > 100 µM
TGI [12]: > 100 µM
TGI [13]: > 100 µM
TGI [14]: > 100 µM
TGI [15]: > 100 µM
TGI [16]: > 100 µM
TGI [17]: > 100 µM
TGI [18]: > 100 µM
TGI [19]: > 100 µM
TGI [20]: > 100 µM
TGI [21]: > 100 µM
TGI [22]: > 100 µM
TGI [23]: > 100 µM
TGI [24]: > 100 µM
TGI [25]: > 100 µM
TGI [26]: > 100 µM
TGI [27]: > 100 µM
TGI [28]: > 100 µM
TGI [29]: > 100 µM
TGI [30]: > 100 µM
TGI [31]: > 100 µM
TGI [34]: > 100 µM
TGI [35]: > 100 µM
TGI [36]: > 100 µM
TGI [37]: > 100 µM
TGI [38]: > 100 µM
TGI [39]: > 100 µM
TGI [40]: > 100 µM
TGI [41]: > 100 µM
TGI [42]: > 100 µM
TGI [44]: > 100 µM
TGI [45]: > 100 µM
TGI [46]: > 100 µM
TGI [47]: > 100 µM
TGI [48]: > 100 µM
TGI [58]: > 100 µM
TGI [49]: > 100 µM
TGI [50]: > 100 µM
TGI [51]: > 100 µM
TGI [52]: > 100 µM
TGI [53]: > 100 µM
TGI [54]: > 100 µM
TGI [55]: > 100 µM
TGI [56]: > 100 µM
TGI [57]: > 100 µM
